The values below come from ChEMBL document CHEMBL1143013, “4-aryl-5-(4-piperidyl)-3-isoxazolol GABAA antagonists: synthesis, pharmacology, and structure-activity relationships” (J Med Chem, 2007).

Active and inactive are the calls of the source. No cut-off for these calls is given here.

The species entered for one experiment is Rattus norvegicus. The experiment in a line: Displacement of [3H]GABA from GABAB receptor in Sprague-Dawley rat brain synaptic membrane at 100 uM. Background: Displacement assays read how much labelled ligand stays bound in the presence of the test substance.
The nature of experiment [1]: Displacement of [3H]muscimol from GABAA receptor in Sprague-Dawley rat brain synaptic membrane.
In experiment [2] the target is T1, GABA-A receptor; alpha-1/beta-3/gamma-2 (Homo sapiens, UniProt P14867+P18507+P28472).
T1 sequence (P14867 whole entry): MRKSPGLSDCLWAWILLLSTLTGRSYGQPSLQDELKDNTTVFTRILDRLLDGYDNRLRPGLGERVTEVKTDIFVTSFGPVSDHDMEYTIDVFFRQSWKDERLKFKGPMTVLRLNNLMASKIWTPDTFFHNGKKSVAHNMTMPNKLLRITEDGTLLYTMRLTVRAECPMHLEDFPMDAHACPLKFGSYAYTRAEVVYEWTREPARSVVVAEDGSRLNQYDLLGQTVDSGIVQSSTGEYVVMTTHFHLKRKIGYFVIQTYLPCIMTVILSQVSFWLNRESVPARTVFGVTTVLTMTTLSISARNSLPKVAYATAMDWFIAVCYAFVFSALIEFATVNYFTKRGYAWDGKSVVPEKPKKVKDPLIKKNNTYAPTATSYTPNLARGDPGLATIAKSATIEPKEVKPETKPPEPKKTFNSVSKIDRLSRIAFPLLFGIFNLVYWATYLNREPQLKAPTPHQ
T1 sequence (P18507 whole entry): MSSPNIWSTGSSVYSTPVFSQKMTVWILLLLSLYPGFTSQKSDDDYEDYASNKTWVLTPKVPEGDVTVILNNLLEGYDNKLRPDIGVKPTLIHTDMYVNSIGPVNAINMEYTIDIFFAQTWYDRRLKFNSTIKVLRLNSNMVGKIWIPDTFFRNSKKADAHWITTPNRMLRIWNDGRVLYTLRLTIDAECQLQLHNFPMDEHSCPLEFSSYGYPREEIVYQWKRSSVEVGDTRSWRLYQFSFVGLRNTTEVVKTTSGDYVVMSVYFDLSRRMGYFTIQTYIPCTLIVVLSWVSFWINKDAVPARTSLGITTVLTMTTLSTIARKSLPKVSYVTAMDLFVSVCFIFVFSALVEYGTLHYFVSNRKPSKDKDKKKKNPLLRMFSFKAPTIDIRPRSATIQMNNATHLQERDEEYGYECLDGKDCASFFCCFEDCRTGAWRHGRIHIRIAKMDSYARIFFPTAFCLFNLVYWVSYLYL
T1 sequence (P28472 whole entry): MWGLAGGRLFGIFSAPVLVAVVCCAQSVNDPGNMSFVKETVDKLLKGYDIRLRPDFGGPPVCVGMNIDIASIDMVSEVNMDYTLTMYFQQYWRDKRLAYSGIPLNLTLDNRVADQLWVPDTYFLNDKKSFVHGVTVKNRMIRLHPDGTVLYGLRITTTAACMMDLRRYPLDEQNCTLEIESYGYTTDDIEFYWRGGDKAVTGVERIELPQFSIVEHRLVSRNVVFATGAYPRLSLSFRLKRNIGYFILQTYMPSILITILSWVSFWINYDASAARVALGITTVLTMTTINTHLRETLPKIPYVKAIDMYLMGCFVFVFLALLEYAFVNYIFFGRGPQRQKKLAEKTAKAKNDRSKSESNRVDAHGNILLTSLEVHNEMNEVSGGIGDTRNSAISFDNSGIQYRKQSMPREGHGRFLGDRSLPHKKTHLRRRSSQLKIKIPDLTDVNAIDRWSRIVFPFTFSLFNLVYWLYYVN
The experiment in a line: Antagonist activity at human GABAA alpha-1-beta-3-gamma-2S expressed in Xenopus oocytes by two-electrode voltage-clamp electrophysiology. The format is functional, cell-based, Oocyte.

As a reminder, the Ki is a measure of affinity in units of concentration, obtained from inhibition or displacement. Turning to `Br.Oc1noc(C2CCNCC2)c1-c1cc(Cl)cc(Cl)c1`, in the experiment filed under Rattus norvegicus, the outcome was inactive. Further, the Ki turned out to be 77 nM in experiment [1] and 68 nM in experiment [2] (read-out: Ki). In experiment [1], the “Log Ki” value was -7.11.
Consider `Oc1noc(C2CCNCC2)c1Cc1ccc2ccccc2c1-c1ccccc1`, for which the outcome in the experiment listed under Rattus norvegicus was inactive. Also, the values for the inhibitory constant (Ki) in experiment [1] and in experiment [2] (read-out: Ki) were 21 nM and 198 nM, respectively.
With `Br.Oc1noc(C2CCNCC2)c1-c1ccc(-c2ccccc2)cc1`, in the experiment filed under Rattus norvegicus, the outcome was inactive. Further, in experiment [1], the Ki turned out to be 195 nM and the “Log Ki” value was -6.71. In addition, in experiment [2] (read-out: Ki), the Ki is 71 nM.
In the case of `O=c1[nH]oc(C2CCNCC2)c1-c1cccc2ccccc12`, the inhibitory constant (Ki) in experiment [2] (read-out: Ki) turned out to be 334 nM.
For the molecule `Oc1cc(C2CCNCC2)on1`, the outcome in the experiment filed under Rattus norvegicus was inactive.
For the molecule `Br.Br.Nc1cccc(-c2c(O)noc2C2CCNCC2)c1`, the result in the experiment filed under Rattus norvegicus was inactive. The Ki in experiment [1] worked out at 84 nM; in experiment [2] (read-out: Ki), 59 nM. Besides, the “Log Ki” value in experiment [1] is given as -7.07.
With `Br.Oc1noc(C2CCNCC2)c1-c1ccccc1Cl`, the result in the experiment listed under Rattus norvegicus was inactive. For the same molecule, the Ki in experiment [1] is 851 nM; in experiment [2] (read-out: Ki) it was 129 nM. Further, the “Log Ki” value in experiment [1] was -6.07.
On to `Oc1noc(C2CCNCC2)c1-c1cccc2ccccc12`, for which, in the experiment listed under Rattus norvegicus, the result was inactive. Also, in experiment [1], the inhibition constant Ki is 820 nM.
For the molecule `Oc1noc(C2CCNCC2)c1-c1ccc2ccccc2c1`, the outcome in the experiment filed under Rattus norvegicus was inactive. Besides, the values for the inhibition constant Ki in experiment [1] and in experiment [2] (read-out: Ki) were 36 nM and 141 nM, respectively.
On to `Br.Oc1noc(C2CCNCC2)c1-c1ccc(Cl)cc1`, for which the outcome in the experiment filed under Rattus norvegicus was inactive. The Ki in experiment [1] was found to be 2420 nM; in experiment [2] (read-out: Ki), 204 nM. Besides, the “Log Ki” value in experiment [1] is on record as -5.62.
Regarding `Oc1noc(C2CCNCC2)c1-c1ccccc1`, the outcome in the experiment filed under Rattus norvegicus was inactive. For the same molecule, the Ki came to 220 nM in experiment [1] and 159 nM in experiment [2] (read-out: Ki).
Consider `Br.O=[N+]([O-])c1cccc(-c2c(O)noc2C2CCNCC2)c1`, for which, in the experiment filed under Rattus norvegicus, the result was inactive. Moreover, the inhibition constant Ki in experiment [1] turned out to be 234 nM; in experiment [2] (read-out: Ki) it was 138 nM. In addition, the “Log Ki” value in experiment [1] is given as -6.63.
For `Br.Oc1noc(C2CCNCC2)c1-c1cccc(Cl)c1`, in the experiment filed under Rattus norvegicus, the outcome was inactive. Also, the inhibitory constant (Ki) was 58 nM in experiment [1] and 48 nM in experiment [2] (read-out: Ki). Besides, the “Log Ki” value in experiment [1] was -7.24.
For the molecule `Br.Oc1noc(C2CCNCC2)c1-c1ccc(Oc2ccccc2)cc1`, the result in the experiment listed under Rattus norvegicus was inactive. Also, in experiment [1], the Ki turned out to be 70 nM and the “Log Ki” value was -7.15. In experiment [2] (read-out: Ki), the Ki was determined as 8 nM.
As for `Br.Oc1noc(C2CCNCC2)c1-c1csc(-c2ccccc2)c1`, in the experiment filed under Rattus norvegicus, the result was inactive. Besides, in experiment [1], the Ki was found to be 25 nM and the “Log Ki” value is recorded as -7.61. Also, the inhibition constant Ki in experiment [2] (read-out: Ki) is 9 nM.
Take `Oc1noc(C2CCNCC2)c1Cc1ccc2ccccc2c1`: the outcome in the experiment listed under Rattus norvegicus was inactive. For the same molecule, the inhibitory constant (Ki) in experiment [1] stood at 49 nM.
In the case of `Br.Oc1noc(C2CCNCC2)c1-c1cccnc1`, the result in the experiment filed under Rattus norvegicus was inactive. In addition, the Ki in experiment [1] was 955 nM; in experiment [2] (read-out: Ki), 427 nM; in experiment [2] (read-out: Log Ki (converted)), 479 nM. Moreover, the “Log Ki” value in experiment [1] was -6.02.
On to `Br.CC(C)(C)c1ccc(-c2c(O)noc2C2CCNCC2)cc1`, for which the outcome in the experiment listed under Rattus norvegicus was inactive. Moreover, the inhibitory constant (Ki) in experiment [1] came out at 6980 nM; in experiment [2] (read-out: Ki), 257 nM. Besides, in experiment [1], the “Log Ki” value is -5.16.
On to `Br.Oc1noc(C2CCNCC2)c1-c1ccsc1`, for which the outcome in the experiment filed under Rattus norvegicus was inactive. Further, the inhibitory constant (Ki) is 317 nM in experiment [1] and 76 nM in experiment [2] (read-out: Ki). The “Log Ki” value in experiment [1] is recorded as -6.5.
Turning to `Br.Oc1noc(C2CCNCC2)c1-c1cccc(-c2ccccc2)c1`, the outcome in the experiment filed under Rattus norvegicus was inactive. For the same molecule, in experiment [1], affinity was put at a Ki of 10 nM and the “Log Ki” value is -8. The Ki in experiment [2] (read-out: Ki) was 10 nM.
